Earlier results in patent US20100003344A1, “Cosmetic Skincare Method Employing Mechanical Stresses” (L'OREAL, priority 2005, published 2010).
Like-named read-outs stand apart in the source and are kept apart here. Ends that are not written are not given here.

Legend:
β1 integrins [1] = details: cells in culture
beta1 integrins = details: stated as known
β1 integrins [2] = test system: β1 integrins
[3] = test system: α2, α3, α6, αv and β1 integrins; details: keratinocytes in culture or in reconstructed skins
β1 integrins [4] = details: applied to the skin ex vivo

Question: What does the source list for KLDAPT [VINCI 02]?
Answer: expression of β1 integrins (β1 integrins [1]): stimulates the expression of β1 integrins; number of mechanoreceptors (beta1 integrins) on the surface of the keratinocytes (beta1 integrins): increase the number of mechanoreceptors

Question: Which “expression of β1 integrins” value (β1 integrins [2]) does the source give for RDFTKATNIRLRFLR [VINCI 01] here?
Answer: stimulates the expression of β1 integrins

Question: Which results are given for manganese gluconate?
Answer: expression of integrins, in particular the α2, α3, α6, αv and β1 integrins [3]: capable of increasing the expression of integrins; number of mechanoreceptors (beta1 integrins) on the surface of the keratinocytes (beta1 integrins): increase the number of mechanoreceptors

Question: With GPQGPQ [COLLAXYL] as the substance, how does the “expression of β1 integrins” value (β1 integrins [4]) read?
Answer: stimulates the expression of β1 integrins

Question: With copper gluconate as the substance, how does the “expression of integrins, in particular the α2, α3, α6, αv and β1 integrins” value [3] read?
Answer: capable of increasing the expression of integrins

Question: For zinc gluconate, which “expression of integrins, in particular the α2, α3, α6, αv and β1 integrins” value [3] is on record?
Answer: capable of increasing the expression of integrins
